For assay [1], the target named is T1, G-protein coupled receptor 35 (Homo sapiens, UniProt Q9HC97). In words: Desensitization of GPR35 in human HT-29 cells assessed as inhibition of zaprinast-induced dynamic mass redistribution pretreated for 1 hr followed by zaprinast stimulation. It counts as functional, cell-based.
Assay [2] has as its target T1, G-protein coupled receptor 35. In words: Agonist activity at GPR35 in human HT-29 cells by dynamic mass redistribution assay. It counts as functional, cell-based.
For assay [3] the target is unchanged. In words: Agonist activity at GPR35 in human HT-29 cells in presence of GPR35 antagonist ML-145 by dynamic mass redistribution assay. Type of assay: functional, cell-based.
Assay [4] has the same target. In words: Agonist activity at recombinant human N-terminal FLAG/eYFP-fused GPR35a expressed in CHOK1 cells assessed as induction of beta-arrestin recruitment by path hunter assay. It counts as cell-based. Background: Arrestin recruitment assays detect the binding of arrestin to an activated receptor.
For assay [5] the target is unchanged. In words: Agonist activity at GPR35 in human HT-29 cells assessed as increase in ERK1/2 phosphorylation at 0.1 to 1 uM after 15 mins by Western blot analysis. It counts as functional, cell-based. (In general: Immunoblotting shows a protein as a band on a membrane.)
Assay [6] shares this target. In words: Agonist activity at GPR35 in human HT-29 cells assessed as increase in ERK1/2 phosphorylation at 0.1 to 1 uM pretreated for 10 mins followed by GPR35 antagonist ML-145 addition measured after 5 mins by Western blot analysis. It counts as functional, cell-based.
Assay [7] concerns the target G protein-coupled receptor GPR35 (Rattus norvegicus, UniProt Q33BM1). In words: Agonist activity at recombinant rat N-terminal FLAG/eYFP-fused GPR35 expressed in HEK293 cells assessed as induction of beta-arrestin recruitment by BRET assay. It counts as functional, cell-based.

The source made the active and inactive calls. No cut-off for these calls is given here.

T1 sequence (Q9HC97 whole entry): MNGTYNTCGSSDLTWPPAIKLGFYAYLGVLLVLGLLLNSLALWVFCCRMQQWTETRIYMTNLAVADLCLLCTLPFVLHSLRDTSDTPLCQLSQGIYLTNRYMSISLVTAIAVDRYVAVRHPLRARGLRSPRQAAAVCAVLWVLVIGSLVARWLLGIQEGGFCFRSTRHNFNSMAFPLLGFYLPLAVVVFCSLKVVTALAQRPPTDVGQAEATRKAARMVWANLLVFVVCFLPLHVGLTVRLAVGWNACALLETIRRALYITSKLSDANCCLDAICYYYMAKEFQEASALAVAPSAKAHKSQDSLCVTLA
Sequence of G protein-coupled receptor GPR35 (Q33BM1 whole entry, the tested form may be a part): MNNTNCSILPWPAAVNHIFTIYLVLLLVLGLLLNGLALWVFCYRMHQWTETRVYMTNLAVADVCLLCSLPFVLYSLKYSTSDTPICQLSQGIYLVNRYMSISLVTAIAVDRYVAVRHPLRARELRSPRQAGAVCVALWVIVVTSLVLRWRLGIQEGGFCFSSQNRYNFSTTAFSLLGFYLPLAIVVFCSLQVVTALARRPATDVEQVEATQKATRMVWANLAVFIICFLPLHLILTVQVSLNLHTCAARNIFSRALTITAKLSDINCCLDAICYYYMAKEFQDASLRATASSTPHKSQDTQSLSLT

As to `O=C(Nc1cc(Br)ccc1-c1nnn[nH]1)c1ccccc1F`, in assay [1], the IC50 turned out to be 170 nM. In addition, the Activity result in assay [2] was “Dose-dependent effect”. The EC50 in assay [2] (read-out: EC50) is 350 nM. Further, in assay [3], the result was inactive.

As for `Cc1cccc(C(=O)Nc2cc(Br)ccc2-c2nnn[nH]2)c1`, in assay [1], the IC50 was determined as 360 nM. Besides, the Activity entry in assay [2] is “Dose-dependent effect”. Besides, in assay [2] (read-out: EC50), the EC50 worked out at 860 nM. Further, the outcome in assay [3] was inactive.

For `O=C1c2ccccc2S(=O)(=O)c2cc(-c3nnn[nH]3)ccc21` [DOXANTRAZOLE], the EC50 in assay [4] turned out to be 3400 nM.

With `COc1ccc(C(=O)Nc2cc(F)ccc2-c2nnn[nH]2)cc1`, the IC50 in assay [1] came out at 82 nM. In assay [2], the Activity result was “Dose-dependent effect”. Besides, the EC50 in assay [2] (read-out: EC50) is 200 nM. For the same compound, the result in assay [3] was inactive.

For the compound `O=C(Nc1cc(Br)ccc1-c1nnn[nH]1)c1ccccc1Cl`, the IC50 in assay [1] was 410 nM. Further, the Activity result in assay [2] was “Dose-dependent effect”. In addition, in assay [2] (read-out: EC50), the EC50 came to 870 nM. Moreover, the outcome in assay [3] was inactive.

As for `COc1ccc(C(=O)Nc2cc(Br)ccc2-c2nnn[nH]2)cc1`, in assay [1], the IC50 came out at 26 nM. Besides, the outcome in assay [5] was Active. Further, the result in assay [6] and in assay [3] was inactive. In addition, the Activity result in assay [2] is “Dose-dependent effect”. In addition, the EC50 in assay [2] (read-out: EC50) was 59 nM.

In the case of `O=C(Nc1cc(Br)ccc1-c1nnn[nH]1)c1ccc(Cl)cc1Cl`, the IC50 in assay [1] was 110 nM. Moreover, the Activity result in assay [2] is “Dose-dependent effect”. Further, the EC50 in assay [2] (read-out: EC50) is 310 nM. Moreover, in assay [3], the result was inactive.

`O=C(Nc1cc(Br)ccc1-c1nnn[nH]1)C1CCCCC1`: the IC50 in assay [1] amounted to 200 nM. Further, in assay [2], the Activity result is “Dose-dependent effect”. The EC50 in assay [2] (read-out: EC50) amounted to 440 nM. The outcome in assay [3] was inactive.

On to `O=C(Nc1cc(Br)ccc1-c1nnn[nH]1)c1ccc(Cl)cc1`, for which the IC50 in assay [1] is 210 nM. Besides, in assay [2], the Activity entry was “Dose-dependent effect”. Besides, in assay [2] (read-out: EC50), the EC50 is 520 nM. Besides, in assay [3], the outcome was inactive.

With `COc1ccc(C(=O)Nc2ccc(-c3nnn[nH]3)cc2)cc1`, the IC50 in assay [1] is 8360 nM. Moreover, in assay [2], the Activity result was “Dose-dependent effect”. Moreover, in assay [2] (read-out: EC50), the EC50 worked out at 17600 nM. Also, the result in assay [3] was inactive.

`CC(C)C(=O)Nc1cc(Br)ccc1-c1nnn[nH]1`: the IC50 in assay [1] amounted to 280 nM. In addition, the Activity result in assay [2] was “Dose-dependent effect”. Also, in assay [2] (read-out: EC50), the EC50 came to 380 nM. Moreover, the outcome in assay [3] was inactive.

As to `O=C(Nc1cc(Br)ccc1-c1nnn[nH]1)c1ccccc1`, the IC50 in assay [1] worked out at 300 nM. The Activity entry in assay [2] was “Dose-dependent effect”. For the same compound, the EC50 in assay [2] (read-out: EC50) worked out at 870 nM. Also, the result in assay [3] was inactive.

With `Cc1cccn2c(=O)c(-c3nnn[nH]3)cnc12` [PEMIROLAST], the EC50 in assay [7] worked out at 95 nM.

`Cc1ccccc1C(=O)Nc1cc(Br)ccc1-c1nnn[nH]1`: the IC50 in assay [1] came out at 810 nM. For the same compound, the Activity result in assay [2] was “Dose-dependent effect”. Moreover, in assay [2] (read-out: EC50), the EC50 stood at 2050 nM. In addition, the outcome in assay [3] was inactive.

Regarding `Cc1ccc(C(=O)Nc2cc(Br)ccc2-c2nnn[nH]2)cc1`, in assay [1], the IC50 is 510 nM. Moreover, the Activity entry in assay [2] was “Dose-dependent effect”. Moreover, the EC50 in assay [2] (read-out: EC50) came to 1330 nM. Further, in assay [3], the outcome was inactive.

`COc1cccc(C(=O)Nc2cc(Br)ccc2-c2nnn[nH]2)c1`: the IC50 in assay [1] was 810 nM. In assay [2], the Activity entry was “Dose-dependent effect”. Also, in assay [2] (read-out: EC50), the EC50 stood at 1940 nM. Besides, the result in assay [3] was inactive.

Turning to `O=C(Nc1cc(Br)ccc1-c1nnn[nH]1)c1ccco1`, the IC50 in assay [1] amounted to 440 nM. In assay [2], the Activity entry is “Dose-dependent effect”. Besides, the EC50 in assay [2] (read-out: EC50) is 1060 nM. In assay [3], the outcome was inactive.

For the compound `O=C(Nc1cc(Br)ccc1-c1nnn[nH]1)c1cccc(C(F)(F)F)c1`, the IC50 in assay [1] turned out to be 1280 nM. Also, the Activity entry in assay [2] was “Dose-dependent effect”. Moreover, in assay [2] (read-out: EC50), the EC50 came to 4600 nM. Further, the result in assay [3] was inactive.

Consider `COc1ccc(C(=O)Nc2ccccc2-c2nn[nH]n2)cc1`, for which, in assay [1], the IC50 came out at 280 nM. Also, the Activity result in assay [2] is “Dose-dependent effect”. In addition, the EC50 in assay [2] (read-out: EC50) was found to be 650 nM. Moreover, the result in assay [3] was inactive.

With `COc1ccc(C(=O)Nc2cc(Br)ccc2-c2nnn[nH]2)c(F)c1`, the IC50 in assay [1] was determined as 14 nM. In addition, in assay [2], the Activity result is “Dose-dependent effect”. In assay [2] (read-out: EC50), the concentration giving a half-maximal response (EC50) was found to be 41 nM. The outcome in assay [3] was inactive.

For the compound `O=C(Nc1cc(Br)ccc1-c1nnn[nH]1)c1cccc(F)c1`, the IC50 in assay [1] worked out at 210 nM. Further, the Activity entry in assay [2] was “Dose-dependent effect”. Besides, the EC50 in assay [2] (read-out: EC50) turned out to be 610 nM. In addition, the result in assay [3] was inactive.

`O=C(Nc1cc(Br)ccc1-c1nnn[nH]1)c1ccc(F)cc1F`: the IC50 in assay [1] stood at 60 nM. In assay [5], the result was Active. The result in assay [6] and in assay [3] was inactive. Further, the Activity entry in assay [2] is “Dose-dependent effect”. In addition, the EC50 in assay [2] (read-out: EC50) is 130 nM.

For the compound `CCC(=O)Nc1cc(Br)ccc1-c1nnn[nH]1`, the 50% inhibitory concentration (IC50) in assay [1] was determined as 700 nM. Moreover, the Activity entry in assay [2] was “Dose-dependent effect”. The EC50 in assay [2] (read-out: EC50) was determined as 620 nM. In addition, in assay [3], the result was inactive.

As for `COc1ccccc1C(=O)Nc1cc(Br)ccc1-c1nnn[nH]1`, in assay [1], the IC50 was 400 nM. In addition, in assay [2], the Activity result was “Dose-dependent effect”. In addition, the EC50 in assay [2] (read-out: EC50) was 860 nM. Moreover, the outcome in assay [3] was inactive.

In the case of `O=C(Nc1cc(Br)ccc1-c1nnn[nH]1)c1cccc(Cl)c1`, in assay [1], the IC50 is 480 nM. In addition, the Activity result in assay [2] was “Dose-dependent effect”. Besides, the EC50 in assay [2] (read-out: EC50) is 2180 nM. Besides, the outcome in assay [3] was inactive.

Take `O=C(Nc1cc(Br)ccc1-c1nnn[nH]1)c1ccc(C(F)(F)F)cc1`: the IC50 in assay [1] is 1360 nM. In assay [2], the Activity result is “Dose-dependent effect”. Further, the EC50 in assay [2] (read-out: EC50) is 3650 nM. Further, in assay [3], the outcome was inactive.

`COc1ccc(C(=O)Nc2ccccc2C#N)cc1`: in assay [2] (ht-29), the EC50 entry was “Not Active”. The result in assay [3] was inactive.

On to `COc1ccc(C(=O)Nc2cc(Br)ccc2-c2nnn[nH]2)cc1OC`, for which, in assay [1], the IC50 turned out to be 260 nM. In addition, in assay [2], the Activity entry is “Dose-dependent effect”. In addition, in assay [2] (read-out: EC50), the EC50 amounted to 830 nM. In addition, in assay [3], the result was inactive.

On to `COc1ccc(C(=O)Nc2ccc(Br)cc2-c2nnn[nH]2)cc1`, for which the IC50 in assay [1] was determined as 110 nM. Besides, the Activity entry in assay [2] was “Dose-dependent effect”. Further, the EC50 in assay [2] (read-out: EC50) was found to be 300 nM. Also, the result in assay [3] was inactive.

For `Nc1ccc(Br)cc1-c1nnn[nH]1`, in assay [1], the IC50 was 75300 nM. For the same compound, the Activity entry in assay [2] is “Dose-dependent effect”. For the same compound, the EC50 in assay [2] (read-out: EC50) is 44100 nM. Besides, the outcome in assay [3] was inactive.

Take `O=C(Nc1cc(Br)ccc1-c1nnn[nH]1)c1ccc(F)cc1`: the IC50 in assay [1] is 160 nM. Besides, the Activity entry in assay [2] is “Dose-dependent effect”. For the same compound, the EC50 in assay [2] (read-out: EC50) is 450 nM. Also, in assay [3], the outcome was inactive.

Take `O=C(Nc1cc(Br)ccc1-c1nnn[nH]1)c1cccs1`: the IC50 in assay [1] is 260 nM. The Activity entry in assay [2] was “Dose-dependent effect”. For the same compound, in assay [2] (read-out: EC50), the concentration for a half-maximal effect (EC50) came to 510 nM. In assay [3], the result was inactive.

As a reminder, the IC50 is the point on the concentration scale where inhibition reaches its midpoint. Broadly, the EC50 is the concentration at which the effect is half-maximal.

For the origin of these results see ChEMBL document CHEMBL4145590, “SAR Studies of N-[2-(1H-Tetrazol-5-yl)phenyl]benzamide Derivatives as Potent G Protein-Coupled Receptor-35 Agonists” (ACS Med Chem Lett, 2018).
